Results on 24 molecules are retold here after patent US9725445B2, “Cycloalkyl nitrile pyrazolo pyridones as Janus kinase inhibitors” (Merck Sharp & Dohme Corp., priority 2013, dated 2017).

The target of one assay is JAK1 (Homo sapiens (Human), UniProt P23458). Description: Jak biochemical HTRF assay, JAK1. As to conditions: HTRF biochemical assay, recombinant GST-tagged catalytic domain; read-out: JAK1 IC50.
The next assay has as its target JAK2 (Homo sapiens (Human), UniProt O60674). Description: Jak biochemical HTRF assay, JAK2. As to conditions: HTRF biochemical assay, recombinant GST-tagged catalytic domain; read-out: JAK2 IC50.

Sequence of JAK2 (O60674 849-1124): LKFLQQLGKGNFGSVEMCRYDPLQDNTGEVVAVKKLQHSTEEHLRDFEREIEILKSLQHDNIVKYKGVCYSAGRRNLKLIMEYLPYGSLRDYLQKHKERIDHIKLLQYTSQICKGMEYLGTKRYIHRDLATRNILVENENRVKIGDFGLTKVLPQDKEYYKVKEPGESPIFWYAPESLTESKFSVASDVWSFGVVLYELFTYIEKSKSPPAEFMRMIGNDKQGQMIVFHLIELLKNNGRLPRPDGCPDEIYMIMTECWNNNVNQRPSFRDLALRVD
Sequence of JAK1 (P23458 875-1153): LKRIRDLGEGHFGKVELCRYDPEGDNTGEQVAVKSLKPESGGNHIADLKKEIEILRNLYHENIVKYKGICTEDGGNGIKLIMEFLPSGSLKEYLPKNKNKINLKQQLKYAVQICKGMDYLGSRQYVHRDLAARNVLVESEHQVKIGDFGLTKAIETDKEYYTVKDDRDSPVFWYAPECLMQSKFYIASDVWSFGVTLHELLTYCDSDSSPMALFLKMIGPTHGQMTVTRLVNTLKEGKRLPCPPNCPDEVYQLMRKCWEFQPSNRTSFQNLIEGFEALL

Broadly, the IC50 is the concentration that gives 50% inhibition. For the molecule `CC(C)(C)NS(=O)(=O)c1ccc(Nc2nn([C@H]3CCC[C@@H]3C#N)c3cc[nH]c(=O)c23)cc1` [Example 3-107, N-tert-butyl-4-({1-[(1S,2S)-2-cyanocyclopentyl]-4-oxo-4,5-dihydro-1H-pyrazolo[4,3-c]pyridin-3-yl}amino)benzenesulfonamide], the IC50 on JAK1 stood at 0.22 nM; at JAK2, 0.48 nM.
For `CC(O)(c1ccc(Nc2nn([C@H]3CCCC[C@@H]3C#N)c3cc[nH]c(=O)c23)cc1)C(F)(F)F` (single isomer, unassigned) [Example 15-11, (1S,2S)-2-[4-oxo-3-({4-[(1R or 1S)-2,2,2-trifluoro-1-hydroxy-1-methylethyl]phenyl}amino)-4,5-dihydro-1H-pyrazolo[4,3-c]pyridin-1-yl]cyclohexanecarbonitrile] the same measures were 0.13 nM and 0.84 nM.
On the same counts, the results for `N#C[C@H]1CCCC[C@@H]1n1nc(Nc2ccc([C@H](N)C(F)(F)F)cc2)c2c(=O)[nH]ccc21` [Example 7-4, (1S,2S)-2-[3-({4-[(1S)-1-amino-2,2,2-trifluoroethyl]phenyl}amino)-4-oxo-4,5-dihydro-1H-pyrazolo[4,3-c]pyridin-1-yl]cyclohexanecarbonitrile] are 0.11 nM and 0.41 nM.
Turning to `N#C[C@H]1CCCC[C@@H]1n1nc(Nc2ccc(Cn3nccn3)cc2)c2c(=O)[nH]ccc21` [Example 3-45, (1S,2S)-2-(4-oxo-3-{[4-(2H-1,2,3-triazol-2-ylmethyl)phenyl]amino}-4,5-dihydro-1H-pyrazolo[4,3-c]pyridin-1-yl)cyclohexanecarbonitrile], the IC50 worked out at 0.37 nM at JAK1 and 0.42 nM on JAK2.
On the same counts, the results for `CC(C)(C)[S@@+]([O-])N[C@@H](c1cccc(Nc2nn([C@H]3CCCC[C@@H]3C#N)c3cc[nH]c(=O)c23)c1)C(F)(F)F` [Example 3-41, N-{(1S)-1-[3-({1-[(1S,2S)-2-cyanocyclohexyl]-4-oxo-4,5-dihydro-1H-pyrazolo[4,3-c]pyridin-3-yl}amino)phenyl]-2,2,2-trifluoroethyl}-2-methylpropane-2-sulfinamide] are 1.6 nM and 29 nM.
As to `C[C@@H](NCC(F)(F)F)c1ccc(Nc2nn([C@H]3CCCC[C@@H]3C#N)c3cc[nH]c(=O)c23)cc1` [Example 3-66, (1S,2S)-2-{4-oxo-3-[(4-{(1R)-1-[(2,2,2-trifluoroethyl)amino]ethyl}phenyl)amino]-4,5-dihydro-1H-pyrazolo[4,3-c]pyridin-1-yl}cyclohexanecarbonitrile], the IC50 came out at 0.2 nM at JAK1 and 0.32 nM on JAK2.
Turning to `N#CCC1(n2nc(Nc3ccc(C(N)C(F)F)cc3)c3c(=O)[nH]ccc32)CCCCC1` (single isomer, unassigned) [Example 9-1, (S or R)-2-(1-(3-(4-(1-Amino-2,2-difluoroethyl)phenylamino)-4-oxo-4,5-dihydro-1H-pyrazolo[4,3-c]pyridin-1-yl)cyclohexyl)acetonitrile], the IC50 at JAK1 is 0.19 nM; on JAK2, 0.47 nM.
Take `N#C[C@H]1CCCC[C@@H]1n1nc(Nc2ccc3c(c2)CN(CC2CCCC2)S3(=O)=O)c2c(=O)[nH]ccc21` [Example 3-65, (1S,2S)-2-(3-{[2-(cyclopentylmethyl)-1,1-dioxido-2,3-dihydro-1,2-benzisothiazol-5-yl]amino}-4-oxo-4,5-dihydro-1H-pyrazolo[4,3-c]pyridin-1-yl)cyclohexanecarbonitrile]: the IC50 was 0.12 nM at JAK1 and 0.65 nM on JAK2.
For `N#C[C@H]1CCCC[C@@H]1n1nc(Nc2ccc(C3CCCN3)cc2)c2c(=O)[nH]ccc21` (single isomer, unassigned) [Example 3-72, (1S,2S)-2-[4-oxo-3-({4-[(2R or 2S)-pyrrolidin-2-yl]phenyl}amino)-4,5-dihydro-1H-pyrazolo[4,3-c]pyridin-1-yl]cyclohexanecarbonitrile] the same measures were 0.45 nM and 0.5 nM.
On the same counts, the results for `N#C[C@H]1CCCC[C@@H]1n1nc(Nc2ccc(C(O)C(F)(F)F)cc2)c2c(=O)[nH]ccc21` (single isomer, unassigned) [Example 3-8] are 0.13 nM and 0.82 nM.
As for `N#C[C@H]1CCCC[C@@H]1n1nc(Nc2ccc(CNC(=O)c3cnco3)cc2)c2c(=O)[nH]ccc21` [Example 3-29, N-[4-({1-[(1S,2S)-2-cyanocyclohexyl]-4-oxo-4,5-dihydro-1H-pyrazolo[4,3-c]pyridin-3-yl}amino)benzyl]-1,3-oxazole-5-carboxamide], the IC50 at JAK1 is 0.32 nM; on JAK2, 1.5 nM.
As to `N#C[C@H]1CCC[C@@H]1n1nc(Nc2ccc(C(O)C(F)(F)F)cc2)c2c(=O)[nH]ccc21` (stereo partly drawn) [Example 3-98, (1S,2S)-2-(4-oxo-3-{[4-(2,2,2-trifluoro-1-hydroxyethyl)phenyl]amino}-4,5-dihydro-1H-pyrazolo[4,3-c]pyridin-1-yl)cyclopentanecarbonitrile], the IC50 at JAK1 turned out to be 0.075 nM; at JAK2, 0.53 nM.
For `N#C[C@H]1CCCC[C@@H]1n1nc(Nc2ccc3c(c2)CN(CC(F)(F)F)S3(=O)=O)c2c(=O)[nH]ccc21` [Example 3-58, (1S,2S)-2-(3-{[1,1-dioxido-2-(2,2,2-trifluoroethyl)-2,3-dihydro-1,2-benzisothiazol-5-yl]amino}-4-oxo-4,5-dihydro-1H-pyrazolo[4,3-c]pyridin-1-yl)cyclohexanecarbonitrile] the same measures were 0.05 nM and 0.58 nM.
On the same counts, the results for `N#C[C@H]1CCC[C@@H]1n1nc(Nc2ccc(C(N)C(F)(F)F)cc2)c2c(=O)[nH]ccc21` (single isomer, unassigned) [Example 3-103, (1S,2S)-2-[3-({4-[(1R or 1S)-1-amino-2,2,2-trifluoroethyl]phenyl}amino)-4-oxo-4,5-dihydro-1H-pyrazolo[4,3-c]pyridin-1-yl]cyclopentanecarbonitrile] are 0.28 nM and 0.7 nM.
For `CC1(C)OCC(C)(c2cccc(Nc3nn([C@H]4CCCC[C@@H]4C#N)c4cc[nH]c(=O)c34)c2)O1` (stereo partly drawn) [Example 3-38, (1S,2S)-2-{4-Oxo-3-[3-(2,2,4-trimethyl-[1,3]dioxolan-4-yl)-phenylamino]-4,5-dihydro-pyrazolo[4,3-c]pyridin-1-yl}-cyclohexanecarbonitrile] the same measures were 5 nM and 16 nM.
For the molecule `N#C[C@H]1CCCC[C@@H]1n1nc(Nc2cccc(Cn3cncn3)c2)c2c(=O)[nH]ccc21` [Example 3-50, (1S,2S)-2-(4-oxo-3-{[3-(1H-1,2,4-triazol-1-ylmethyl)phenyl]amino}-4,5-dihydro-1H-pyrazolo[4,3-c]pyridin-1-yl)cyclohexanecarbonitrile], the figures for the IC50 at JAK1 and on JAK2 were 0.5 nM and 1.3 nM, respectively.
For `CC(C)OC(=O)c1ccc2cc(Nc3nn([C@H]4CCCC[C@@H]4C#N)c4cc[nH]c(=O)c34)ccc2n1` [Example 15-16, isopropyl 6-((1-((1S,2S)-2-cyanocyclohexyl)-4-oxo-4,5-dihydro-1H-pyrazolo[4,3-c]pyridin-3-yl)amino)quinoline-2-carboxylate] the same measures were 0.26 nM and 3.8 nM.
With `CC(C)(C)S(=O)(=O)c1ccc(Nc2nn([C@H]3CCC[C@@H]3C#N)c3cc[nH]c(=O)c23)cc1` [Example 3-106, (1S,2S)-2-(3-{[4-(tert-butylsulfonyl)phenyl]amino}-4-oxo-4,5-dihydro-1H-pyrazolo[4,3-c]pyridin-1-yl)cyclopentanecarbonitrile], the IC50 at JAK1 was 0.12 nM; at JAK2, 0.36 nM.
In the case of `N#C[C@H]1CCCC[C@@H]1n1nc(Nc2ccc(C3(N)CCC3)cc2)c2c(=O)[nH]ccc21` [Example 12-2, (1S,2S)-2-(3-((4-(1-aminocyclobutyl)phenyl)amino)-4-oxo-4,5-dihydro-1H-pyrazolo[4,3-c]pyridin-1-yl)cyclohexanecarbonitrile], the IC50 at JAK1 was determined as 0.36 nM; at JAK2, 0.32 nM.
For `N#C[C@H]1CCCC[C@@H]1n1nc(Nc2ccc3c(c2)CC2(CCOCC2)S3(=O)=O)c2c(=O)[nH]ccc21` [Example 21-3, (1S,2S)-2-{3-[(1,1-dioxido-2′,3′,5′,6′-tetrahydro-3H-spiro[1-benzothiophene-2,4′-pyran]-5-yl)amino]-4-oxo-4,5-dihydro-1H-pyrazolo[4,3-c]pyridin-1-yl}cyclohexanecarbonitrile] the same measures were 0.069 nM and 0.18 nM.
For `CC1(N2Cc3cc(Nc4nn([C@H]5CCCC[C@@H]5C#N)c5cc[nH]c(=O)c45)ccc3S2(=O)=O)CCOCC1` [Example 15-64, (1S,2S)-2-(3-{[2-(4-methyltetrahydro-2H-pyran-4-yl)-1,1-dioxido-2,3-dihydro-1,2-benzisothiazol-5-yl]amino}-4-oxo-4,5-dihydro-1H-pyrazolo[4,3-c]pyridin-1-yl)cyclohexanecarbonitrile], the IC50 on JAK1 came to 0.069 nM; at JAK2, 0.17 nM.
For `N#C[C@H]1C[C@H](O)CC[C@@H]1n1nc(Nc2ccc(Cl)cc2)c2c(=O)[nH]ccc21` [Example 3-90, (1S,2S,5R)-2-(3-((4-chlorophenyl)amino)-4-oxo-4,5-dihydro-1H-pyrazolo[4,3-c]pyridin-1-yl)-5-hydroxycyclohexanecarbonitrile] the same measures were 0.28 nM and 7.3 nM.
On the same counts, the results for `CC1c2cc(Nc3nn([C@H]4CCCC[C@@H]4C#N)c4cc[nH]c(=O)c34)ccc2S(=O)(=O)N1C` (single isomer, unassigned) [Example 3-126, (1S,2S)-2-(3-(((R or S)-2,3-dimethyl-1,1-dioxido-2,3-dihydrobenzo[d]isothiazol-5-yl)amino)-4-oxo-4,5-dihydro-1H-pyrazolo[4,3-c]pyridin-1-yl)cyclohexanecarbonitrile] are 0.077 nM and 2.5 nM.
On the same counts, the results for `N#CCCn1cc(-c2ccc(Nc3nn([C@H]4CCCC[C@@H]4C#N)c4cc[nH]c(=O)c34)cc2)cn1` [Example 15-14, (1S,2S)-2-[3-({4-[1-(2-cyanoethyl)-1H-pyrazol-4-yl]phenyl}amino)-4-oxo-4,5-dihydro-1H-pyrazolo[4,3-c]pyridin-1-yl]cyclohexanecarbonitrile] are 0.065 nM and 1.1 nM.
